Data as given in PMC6376162, “HEXIM1 Peptide Exhibits Antimicrobial Activity Against Antibiotic Resistant Bacteria Through Guidance of Cell Penetrating Peptide” (Frontiers in Microbiology, 2019).

System: bacterial translation (E. coli lysate)
Test: In vitro protein synthesis assay (RTS 100 E. coli HY Kit, GFP, Western blot)
Format: biochemical, Escherichia coli
Details: 10 μM streptomycin, RTS with 5 μg GFP mRNA, 30°C, 6 h; positive control
Experimental: The method to study the effect of peptide treatment on in vitro expression of protein was adapted from previous study ([Taniguchi et al., 2016]). RTS^TM 100 E. coli HY Kit (biotechrabbit) was used as a cell-free rapid translation system (RTS) to express green fluorescent protein (GFP) with or without peptide treatment. Streptomycin (Sigma-Aldrich), an antibiotic functioning as an inhibitor of bacterial translation, was used as a positive control. Reaction mixture was prepared as described in the product manual. For the negative control, the remaining 10 μl was topped up with nuclease-free water while for the other reactions, the 10 μl consists of 5 μg GFP mRNA and either nuclease-free water or the indicated treatment (100 μM Pen, Pen-BR, Pen-RRR, CapM2 or 10 μM Streptomycin). Reaction was incubated at 30°C for 6 h before being analyzed with Western blot for the protein level of GFP. To obtain GFP mRNA, control GFP expression vector was first linearized using ApaLI restriction enzyme (New England Biolabs) and then separated via agarose gel electrophoresis. Fragment containing the linearized GFP expression vector was retrieved using FavorPrep GEL Purification Kit (FAVORGEN Biotech Corp.) and subsequently used as the template for MEGAscript^TM T7 Transcription Kit (Thermo Fisher Scientific) to generate GFP mRNA. […]

[H]/N=C(/N)N[C@H]1[C@H](O)[C@@H](O)[C@H](O[C@@H]2O[C@@H](C)[C@](O)(C=O)[C@H]2O[C@@H]2O[C@@H](CO)[C@H](O)[C@@H](O)[C@@H]2NC)[C@@H](N/C(N)=N\[H])[C@@H]1O [streptomycin, Streptomycin]
synthesis of GFP protein (Western blot): significant inhibition
